From US6843979B2, “4-haloethenylphenyl tropane:serotonin transporter imaging agents” (Emory University, priority 1999, dated 2005)

Tests used:
[1] = Tissue uptake of [123I]ZIENT in rats; conditions: rat
SERT sites = SERT sites (Macaca mulatta, UniProt Q9MYX0); test: SPECT imaging and fluvoxamine chase study in rhesus monkey; conditions: for Displacement of tracer by fluvoxamine (SPECT): fluvoxamine 5 mg i.v., midbrain / brainstem; for Brain uptake by SPECT: midbrain by 54 min, brainstem at 80-110 min
Description: SPECT images were reconstructed as transaxial slices (3.2 mm) and attenuation corrected.

SERT = test: SPECT imaging in baboon; type: in vivo; conditions: anesthetized baboon, 300-360 min
Method: FIG. 7 is a graph showing time activity curves of [^123I]ZIENT in a baboon.
The baboon was injected with 10 mCi of [^123I]ZIENT and serial images (128×128×64 matrix: pixel size=1.67×1.67 mm, slice, thickness=1.67 mm, voxel volume=4.66 mm^3) were acquired at 159 keV, in step and shoot mode at 10 min each for a total of 360 to 390 min and 32 to 35 acquisitions per experiment. Images were reconstructed using a ramp and a Butterworth filter (cutoff=0.65 cm-power factor=10). To identify brain regions, MRI scans of 1.5 mm contiguous slices were obtained with a 1.5 Tesla GE Signa device. Axial images were acquired using a spoiled GRASS (gradient recall acquisition in the steady state) sequence with TR=25 ms, TE=5 ms, NEX=2, matrix=256×192, field of view=16 cm. […] The uptake ratio of brainstem/cerebellum was 3.0:1 at 300-360 min.

rat brain SERT = rat brain SERT (Rattus norvegicus, UniProt P31652); test: Regional brain uptake of [123I]ZIENT in rats with blocking agents
[2] = 5 mg/kg i.v. 15 min prior, 60 min
[3] = 60 min, Fluvoxamine 5 mg/kg i.v. 15 min prior
[4] = 60 min, GBR 12909 5 mg/kg i.v. 15 min prior
[5] = 60 min after i.v., listed as [^123]ZIENT

Chain of rat brain SERT (P31652 whole entry): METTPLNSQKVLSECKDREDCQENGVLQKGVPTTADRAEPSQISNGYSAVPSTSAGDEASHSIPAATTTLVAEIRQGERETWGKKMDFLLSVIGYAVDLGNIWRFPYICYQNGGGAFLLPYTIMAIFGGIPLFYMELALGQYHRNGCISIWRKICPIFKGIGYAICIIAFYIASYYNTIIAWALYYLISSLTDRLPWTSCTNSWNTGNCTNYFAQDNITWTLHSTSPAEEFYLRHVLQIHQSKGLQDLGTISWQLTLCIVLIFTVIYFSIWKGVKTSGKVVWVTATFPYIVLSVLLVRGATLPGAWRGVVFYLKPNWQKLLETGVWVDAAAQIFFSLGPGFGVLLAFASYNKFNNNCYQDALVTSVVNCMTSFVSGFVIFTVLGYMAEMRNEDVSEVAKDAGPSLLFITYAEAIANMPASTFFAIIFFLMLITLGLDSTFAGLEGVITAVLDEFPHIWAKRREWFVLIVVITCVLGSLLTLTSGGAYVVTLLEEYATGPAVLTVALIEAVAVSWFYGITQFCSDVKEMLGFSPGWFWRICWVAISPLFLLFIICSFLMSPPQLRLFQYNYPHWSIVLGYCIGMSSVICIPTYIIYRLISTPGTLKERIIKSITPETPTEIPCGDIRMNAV
Chain of SERT sites (Q9MYX0 whole entry): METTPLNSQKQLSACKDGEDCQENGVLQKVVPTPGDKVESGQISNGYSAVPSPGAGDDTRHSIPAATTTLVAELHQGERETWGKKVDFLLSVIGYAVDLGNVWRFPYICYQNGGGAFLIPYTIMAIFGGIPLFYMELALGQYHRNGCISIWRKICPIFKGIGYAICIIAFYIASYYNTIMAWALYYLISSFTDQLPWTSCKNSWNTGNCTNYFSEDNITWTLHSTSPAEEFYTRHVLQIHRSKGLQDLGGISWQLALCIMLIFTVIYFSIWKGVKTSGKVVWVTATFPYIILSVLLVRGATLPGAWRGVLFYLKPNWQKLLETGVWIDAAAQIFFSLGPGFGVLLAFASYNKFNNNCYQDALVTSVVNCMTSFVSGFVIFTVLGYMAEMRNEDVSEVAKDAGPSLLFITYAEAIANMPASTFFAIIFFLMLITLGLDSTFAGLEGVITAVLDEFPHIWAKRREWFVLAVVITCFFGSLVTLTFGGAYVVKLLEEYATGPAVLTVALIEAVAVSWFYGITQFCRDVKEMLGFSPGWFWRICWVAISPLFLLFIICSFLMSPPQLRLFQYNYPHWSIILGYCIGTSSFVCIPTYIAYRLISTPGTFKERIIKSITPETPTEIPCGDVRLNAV

COC(=O)C1C2CCC(CC1c1ccc(C=C[123I])cc1)N2 (stereo not shown) [[^123I]ZIENT]
Tissue uptake, Blood ([1]; 5 min after i.v.): 0.64 (0.52-0.86) percent dose per gram
Tissue uptake, Heart ([1]; 5 min after i.v.): 2.41 (2.36-2.47) percent dose per gram
Tissue uptake, Kidney ([1]; 5 min after i.v.): 2.35 (2.16-2.67) percent dose per gram
Tissue uptake, Liver ([1]; 5 min after i.v.): 0.99 (0.73-1.33) percent dose per gram
Tissue uptake, Lung ([1]; 5 min after i.v.): 9.71 (7.9-11.8) percent dose per gram
Tissue uptake, Muscle ([1]; 5 min after i.v.): 0.30 (0.15-0.44) percent dose per gram
Tissue uptake, Spleen ([1]; 5 min after i.v.): 3.79 (3.28-4.67) percent dose per gram
Tissue uptake, Testis ([1]; 5 min after i.v.): 0.22 (0.19-0.27) percent dose per gram
Tissue uptake, Thyroid ([1]; 5 min after i.v.): 0.11 (0.08-0.12) percent dose per gram
Tissue uptake, Blood ([1]; 30 min after i.v.): 0.46 (0.43-0.49) percent dose per gram
Tissue uptake, Heart ([1]; 30 min after i.v.): 0.52 (0.48-0.55) percent dose per gram
Tissue uptake, Kidney ([1]; 30 min after i.v.): 0.66 (0.64-0.70) percent dose per gram
Tissue uptake, Liver ([1]; 30 min after i.v.): 0.43 (0.38-0.51) percent dose per gram
Tissue uptake, Lung ([1]; 30 min after i.v.): 1.48 (1.35-1.66) percent dose per gram
Tissue uptake, Muscle ([1]; 30 min after i.v.): 0.29 (0.25-0.32) percent dose per gram
Tissue uptake, Spleen ([1]; 30 min after i.v.): 1.24 (1.03-1.50) percent dose per gram
Tissue uptake, Testis ([1]; 30 min after i.v.): 0.36 (0.30-0.47) percent dose per gram
Tissue uptake, Thyroid ([1]; 30 min after i.v.): 0.23 (0.19-0.29) percent dose per gram
Tissue uptake, Blood ([1]; 60 min after i.v.): 0.39 (0.23-0.42) percent dose per gram
Tissue uptake, Heart ([1]; 60 min after i.v.): 0.36 (0.15-0.40) percent dose per gram
Tissue uptake, Kidney ([1]; 60 min after i.v.): 0.44 (0.29-0.50) percent dose per gram
Tissue uptake, Liver ([1]; 60 min after i.v.): 0.28 (0.11-0.30) percent dose per gram
Tissue uptake, Lung ([1]; 60 min after i.v.): 1.27 (0.62-1.44) percent dose per gram
Tissue uptake, Muscle ([1]; 60 min after i.v.): 0.20 (0.11-0.22) percent dose per gram
Tissue uptake, Spleen ([1]; 60 min after i.v.): 0.82 (0.50-0.94) percent dose per gram
Tissue uptake, Testis ([1]; 60 min after i.v.): 0.29 (0.26-0.34) percent dose per gram
Tissue uptake, Thyroid ([1]; 60 min after i.v.): 0.33 (0.17-0.37) percent dose per gram
Tissue uptake, Blood ([1]; 120 min after i.v.): 0.33 (0.31-0.36) percent dose per gram
Tissue uptake, Heart ([1]; 120 min after i.v.): 0.20 (0.18-0.24) percent dose per gram
Tissue uptake, Kidney ([1]; 120 min after i.v.): 0.32 (0.29-0.35) percent dose per gram
Tissue uptake, Liver ([1]; 120 min after i.v.): 0.29 (0.23-0.41) percent dose per gram
Tissue uptake, Lung ([1]; 120 min after i.v.): 0.72 (0.61-0.78) percent dose per gram
Tissue uptake, Muscle ([1]; 120 min after i.v.): 0.16 (0.14-0.18) percent dose per gram
Tissue uptake, Spleen ([1]; 120 min after i.v.): 0.51 (0.44-0.55) percent dose per gram
Tissue uptake, Testis ([1]; 120 min after i.v.): 0.30 (0.26-0.33) percent dose per gram
Tissue uptake, Thyroid ([1]; 120 min after i.v.): 1.61 (0.82-2.31) percent dose per gram
Displacement of tracer by fluvoxamine (SPECT) (SERT sites): significant reduction of activity
Displacement of tracer by fluvoxamine (SPECT) (SERT sites; listed as [^123I] ZIENT): significantly displaced
Brain uptake by SPECT (SERT sites): regions of highest uptake
Brain uptake by SPECT (SERT sites; listed as [^123I] ZIENT): high
Uptake ratio of brainstem/cerebellum (SERT): 3.0
Effect of GBR 12909 (DAT ligand) on tracer uptake in striatum (rat brain SERT; [2]): did not significantly block
Effect of NET blocking agent (reboxetine) on regional brain uptake of tracer (rat brain SERT; [2]): little effect
Effect of fluvoxamine (SERT ligand) on tracer uptake in hypothalamus and striatum (rat brain SERT; [2]): significantly blocked
Hypothal/(CB) ratio (rat brain SERT; [3]): 1.3
Regional uptake, Brain (rat brain SERT; [3]): 0.27 (0.24 0-0.30) % dose/g
Regional uptake, Cerebellum (rat brain SERT; [3]): 0.18 (0.16-0.20) % dose/g
Regional uptake, Frontal Cortex (rat brain SERT; [3]): 0.26 (0.23-0.29) % dose/g
Regional uptake, Hypothalamus (rat brain SERT; [3]): 0.23 (0.18-0.27) % dose/g
Regional uptake, Striatum (rat brain SERT; [3]): 0.28 (0.24-0.32) % dose/g
Striatum/(CB) ratio (rat brain SERT; [3]): 1.6
Hypothal/(CB) ratio (rat brain SERT; [4]): 1.8
Regional uptake, Brain (rat brain SERT; [4]): 0.39 (0.37-0.42) % dose/g
Regional uptake, Cerebellum (rat brain SERT; [4]): 0.21 (0.18-0.26) % dose/g
Regional uptake, Frontal Cortex (rat brain SERT; [4]): 0.43 (0.38-0.47) % dose/g
Regional uptake, Hypothalamus (rat brain SERT; [4]): 0.38 (0.34-0.41) % dose/g
Regional uptake, Striatum (rat brain SERT; [4]): 0.40 (0.37-0.42) % dose/g
Striatum/(CB) ratio (rat brain SERT; [4]): 1.9
Hypothal/(CB) ratio (rat brain SERT; 60 min after i.v.): 2.7
Regional uptake, Brain (rat brain SERT; 60 min after i.v.): 0.61 (0.56-0.63) % dose/g
Regional uptake, Cerebellum (rat brain SERT; 60 min after i.v.): 0.29 (0.28-0.31) % dose/g
Regional uptake, Frontal Cortex (rat brain SERT; 60 min after i.v.): 0.70 (0.65-0.78) % dose/g
Regional uptake, Hypothalamus (rat brain SERT; 60 min after i.v.): 0.7 % dose/g
Regional uptake, Striatum (rat brain SERT; 60 min after i.v.): 0.60 (0.54-0.63) % dose/g
Striatum/(CB) ratio (rat brain SERT; 60 min after i.v.): 2.1
Hypothal/(CB) ratio (rat brain SERT; 60 min after i.v., listed as [^123I] ZIENT): 3
Hypothal/(CB) ratio (rat brain SERT; [5]): 2.7
Regional uptake, Hypothalamus (rat brain SERT; [5]): 0.77 (0.69-0.83) % dose/g
Hypothal/(CB) ratio (rat brain SERT; 120 min after i.v.): 4.4
Regional uptake, Brain (rat brain SERT; 120 min after i.v.): 0.40 (0.32-0.50) % dose/g
Regional uptake, Cerebellum (rat brain SERT; 120 min after i.v.): 0.12 (0.11-0.28) % dose/g
Regional uptake, Frontal Cortex (rat brain SERT; 120 min after i.v.): 0.48 (0.42-0.53) % dose/g
Regional uptake, Hypothalamus (rat brain SERT; 120 min after i.v.): 0.53 (0.44-0.60) % dose/g
Regional uptake, Striatum (rat brain SERT; 120 min after i.v.): 0.46 (0.37-0.55) % dose/g
Striatum/(CB) ratio (rat brain SERT; 120 min after i.v.): 3.8
Hypothal/(CB) ratio (rat brain SERT; 120 min after i.v., listed as [^123I] ZIENT): 5
Hypothal/(CB) ratio (rat brain SERT; 120 min after i.v., listed as [^123]ZIENT): 4.4
Prefrontal cortex to cerebellum ratio (rat brain SERT; 120 min post injection): 2.9
Clearance from the hypothalamus (rat brain SERT; at 120 min compared to 60 min post injection): 30%
